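Step 1: Grow cells in 96-well plates. Step 2: Expose to compound for 48 hours at 5 concentrations. Step 3: Interpolate endpoints linearly; if unreached, use highest concentration. TGI is the concentration that stops growth completely.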
How the values were obtained:
Test in all cases: growth of human tumour cells (NCI), 48 h
[1] = test system: 786-0 renal
[2] = test system: RXF 393 renal
[3] = test system: MOLT-4 leukemia
[4] = test system: HL-60(TB) leukemia
[5] = test system: A549 NSCLC
[6] = test system: NCI-H226 lung
[7] = test system: COLO 205 colon
[8] = test system: OVCAR-4 ovarian
[9] = test system: EKVX NSCLC
[10] = test system: CCRF-CEM leukemia
[11] = test system: OVCAR-3 ovarian
[12] = test system: UO-31 renal
[13] = test system: TK-10 renal
[14] = test system: U251 CNS
[15] = test system: SK-OV-3 ovarian
[16] = test system: OVCAR-5 ovarian
[17] = test system: NCI/ADR-RES ovarian
[18] = test system: HS 578T breast
[19] = test system: M14 melanoma
[20] = test system: MDA-MB-435
[21] = test system: K-562 leukemia
[22] = test system: SN12C renal
[23] = test system: HOP-92 NSCLC
[24] = test system: KM12 colon
[25] = test system: RPMI-8226 leukemia
[26] = test system: SK-MEL-5 melanoma
[27] = test system: SK-MEL-28 melanoma
[28] = test system: UACC-62 melanoma
[29] = test system: SK-MEL-2 melanoma
[30] = test system: BT-549 breast
[31] = test system: A498 renal
[32] = test system: HCC-2998 colon
[33] = test system: OVCAR-8 ovarian
[34] = test system: SR leukemia
[35] = test system: UACC-257 melanoma
[36] = test system: MCF7 breast
[37] = test system: HOP-62 NSCLC
[38] = test system: SNB-19 CNS
[39] = test system: LOX IMVI melanoma
[40] = test system: T-47D breast
[41] = test system: SF-539 CNS
[42] = test system: SW-620 colon
[43] = test system: NCI-H23 lung
[44] = test system: HCT-116 colon
[45] = test system: MDA-MB-231 breast
[46] = test system: DU-145 prostate
[47] = test system: NCI-H522 lung
[48] = test system: PC-3 prostate
[49] = test system: HT29 colon
[50] = test system: NCI-H460 lung
[51] = test system: SNB-75 CNS
[52] = test system: SF-268 CNS
[53] = test system: HCT-15 colon
[54] = test system: IGROV1 ovarian
[55] = test system: SF-295 CNS
[56] = test system: MDA-N
[57] = test system: MALME-3M melanoma
[58] = test system: ACHN renal
[59] = test system: CAKI-1 renal

In the case of `COC(=O)C1=C([C@H]2COC(C)(C)O2)[C@H]2C[C@@H]1[C@@H]1OC(C)(C)O[C@@H]12`, the TGI [1] is reported as > 100 µM, the TGI [2] is reported as > 100 µM and the TGI [3] is reported as > 100 µM. The TGI [4] was > 100 µM, the TGI [5] was > 100 µM and the TGI [6] was > 100 µM. The TGI [7] was > 100 µM, the TGI [8] was > 100 µM and the TGI [9] was > 100 µM. The TGI [10] was > 100 µM, the TGI [11] was > 100 µM and the TGI [12] was > 100 µM. The TGI [13] was > 100 µM, the TGI [14] was > 100 µM and the TGI [15] was > 100 µM. For the same compound, the TGI [16] was > 100 µM, the TGI [17] was > 100 µM and the TGI [18] was > 100 µM. For the same compound, the TGI [19] was > 100 µM, the TGI [20] was > 100 µM and the TGI [21] was > 100 µM. For the same compound, the TGI [22] was > 100 µM, the TGI [23] was > 100 µM and the TGI [24] was > 100 µM. For the same compound, the TGI [25] was > 100 µM, the TGI [26] was > 100 µM and the TGI [27] was > 100 µM. For the same compound, the TGI [28] was > 100 µM, the TGI [29] was > 100 µM and the TGI [30] was > 100 µM. The TGI [31] was > 100 µM, the TGI [32] was > 100 µM and the TGI [33] was > 100 µM. For the same compound, the TGI [34] was > 100 µM, the TGI [35] was > 100 µM and the TGI [36] was > 100 µM. The TGI [37] was > 100 µM, the TGI [38] was > 100 µM and the TGI [39] was > 100 µM. The TGI [40] was > 100 µM, the TGI [41] was > 100 µM and the TGI [42] was > 100 µM. For the same compound, the TGI [43] was > 100 µM, the TGI [44] was > 100 µM and the TGI [45] was > 100 µM. The TGI [46] was > 100 µM, the TGI [47] was > 100 µM and the TGI [48] was > 100 µM. For the same compound, the TGI [49] was > 100 µM, the TGI [50] was > 100 µM and the TGI [51] was > 100 µM. The TGI [52] was > 100 µM, the TGI [53] was > 100 µM and the TGI [54] was > 100 µM. The TGI [55] was > 100 µM, the TGI [56] was > 100 µM and the TGI [57] was > 100 µM. For the same compound, the TGI [58] was > 100 µM.
`Nc1c(S(=O)(=O)O)cc(Nc2cccc(S(N)(=O)=O)c2)c2c1C(=O)c1ccccc1C2=O` was tested, and the TGI [1] was > 100 µM, the TGI [2] was > 100 µM and the TGI [3] was > 100 µM. For the same compound, the TGI [4] was > 100 µM, the TGI [5] was > 100 µM and the TGI [6] was > 100 µM. The TGI [7] was > 100 µM, the TGI [8] was > 100 µM and the TGI [9] was > 100 µM. For the same compound, the TGI [10] was > 100 µM, the TGI [11] was > 100 µM and the TGI [12] was > 100 µM. The TGI [13] was > 100 µM, the TGI [14] was > 100 µM and the TGI [15] was 84.6 µM. The TGI [16] was > 100 µM, the TGI [17] was > 100 µM and the TGI [18] was 69.9 µM. The TGI [19] was > 100 µM, the TGI [20] was 32.6 µM and the TGI [21] was > 100 µM. For the same compound, the TGI [22] was > 100 µM, the TGI [23] was > 100 µM and the TGI [24] was > 100 µM. The TGI [25] was > 100 µM, the TGI [26] was > 100 µM and the TGI [27] was > 100 µM. For the same compound, the TGI [28] was 58.7 µM, the TGI [29] was > 100 µM and the TGI [30] was > 100 µM. For the same compound, the TGI [31] was > 100 µM, the TGI [33] was > 100 µM and the TGI [34] was > 100 µM. The TGI [35] was > 100 µM, the TGI [36] was > 100 µM and the TGI [37] was 71.9 µM. For the same compound, the TGI [38] was > 100 µM, the TGI [39] was > 100 µM and the TGI [40] was > 100 µM. The TGI [41] was > 100 µM, the TGI [42] was > 100 µM and the TGI [43] was > 100 µM. The TGI [44] was > 100 µM, the TGI [45] was > 100 µM and the TGI [46] was > 100 µM. The TGI [59] was > 100 µM, the TGI [47] was > 100 µM and the TGI [48] was > 100 µM. The TGI [49] was > 100 µM, the TGI [50] was > 100 µM and the TGI [51] was 69 µM. For the same compound, the TGI [52] was > 100 µM, the TGI [53] was > 100 µM and the TGI [54] was > 100 µM. For the same compound, the TGI [55] was > 100 µM, the TGI [56] was 42.8 µM and the TGI [57] was 87.9 µM. The TGI [58] was > 100 µM.
For `Clc1ccccc1-c1nc(-c2ccncc2)no1`, the TGI [1] was > 100 µM, the TGI [2] was > 100 µM and the TGI [3] was > 100 µM. For the same compound, the TGI [4] was 29.2 µM, the TGI [5] was > 100 µM and the TGI [6] was > 100 µM. The TGI [7] was > 100 µM, the TGI [8] was > 100 µM and the TGI [9] was > 100 µM. The TGI [11] was > 100 µM, the TGI [12] was > 100 µM and the TGI [13] was > 100 µM. The TGI [14] was > 100 µM, the TGI [15] was > 100 µM and the TGI [16] was > 100 µM. The TGI [17] was > 100 µM, the TGI [18] was > 100 µM and the TGI [19] was > 100 µM. For the same compound, the TGI [20] was > 100 µM, the TGI [21] was > 100 µM and the TGI [22] was > 100 µM. For the same compound, the TGI [23] was > 100 µM, the TGI [24] was > 100 µM and the TGI [25] was > 100 µM. For the same compound, the TGI [26] was 56.4 µM, the TGI [27] was > 100 µM and the TGI [28] was > 100 µM. For the same compound, the TGI [29] was > 100 µM, the TGI [30] was > 100 µM and the TGI [31] was > 100 µM. For the same compound, the TGI [32] was 84.8 µM, the TGI [33] was > 100 µM and the TGI [34] was > 100 µM. The TGI [35] was > 100 µM, the TGI [36] was > 100 µM and the TGI [37] was > 100 µM. The TGI [38] was > 100 µM, the TGI [40] was > 100 µM and the TGI [41] was > 100 µM. The TGI [42] was > 100 µM, the TGI [43] was > 100 µM and the TGI [44] was > 100 µM. For the same compound, the TGI [45] was > 100 µM, the TGI [46] was > 100 µM and the TGI [59] was > 100 µM. The TGI [47] was > 100 µM, the TGI [48] was > 100 µM and the TGI [49] was > 100 µM. The TGI [50] was > 100 µM, the TGI [51] was > 100 µM and the TGI [52] was > 100 µM. For the same compound, the TGI [53] was > 100 µM, the TGI [54] was > 100 µM and the TGI [55] was > 100 µM. For the same compound, the TGI [56] was > 100 µM, the TGI [57] was > 100 µM and the TGI [58] was > 100 µM.
